Experimental data published in the supplement of paper PMC12137928.
Counter-ions that a name gives are not always drawn.

System: HCT116
Details: 72 h
In short: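 HCT116 cells were plated at 250 per well in 1536-well plates and allowed 5 h to attach. CellTiter-Glo luminescence was normalized to vehicle as 0% and positive control as -100%, followed by pattern correction. Four-parameter Hill fits provided IC50 and maximal efficacy.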

IC50 cell viability (ICRF193 0 nM)	IC50 cell viability (ICRF193 200 nM)	SMILES
> 45.8 µM	> 45.8 µM	O=C(OCC(O)CO)c1ccccc1Nc1ccnc2c(C(F)(F)F)cccc12 (configuration not stated) [Floctafenine]
> 45.8 µM	> 45.8 µM	CNNCc1ccc(C(=O)NC(C)C)cc1 [Procarbazine hydrochloride]
> 45.8 µM	> 45.8 µM	CCc1ccc(Nc2c(F)c(F)cc(F)c2F)c(CC(=O)O)c1 [ROBENACOXIB]
> 45.8 µM	> 45.8 µM	CC(=O)N[C@@H](CCC(N)=O)C(=O)O [Nalpha-Acetyl-L-glutamine]
> 45.8 µM	> 45.8 µM	CC(=O)SCC(CC(=O)c1ccc(C)cc1)C(=O)O (configuration not stated) [Esonarimod]
> 45.8 µM	> 45.8 µM	CCCCC(CC)CNC(=O)CC(C)OC(=O)CCC(=O)O (configuration not stated) [Butoctamide semisuccinate]
> 45.8 µM	> 45.8 µM	CCOC(=O)NNc1nncc2ccccc12 [Todralazine hydrochloride]
> 45.8 µM	> 45.8 µM	CCCCCCCCCCCCCCCC(=O)O[C@@H]1CC(C)=C(/C=C/C(C)=C/C=C/C(C)=C/C=C/C=C(C)/C=C/C=C(C)/C=C/C2=C(C)C[C@@H](OC(=O)CCCCCCCCCCCCCCC)CC2(C)C)C(C)(C)C1 [Physalien]
> 45.8 µM	> 45.8 µM	C[C@H](Cc1cc2c(c(C(N)=O)c1)N(CCCO)CC2)NCCOc1ccccc1OCC(F)(F)F [Silodosin]
> 45.8 µM	> 45.8 µM	CCCCCCCCCCCCCCCCCC(=O)OCC(O)CO (racemic) [1-Stearoyl-rac-glycerol]

Second part, the compound before the results:

SMILES	IC50 cell viability (ICRF193 0 nM)	IC50 cell viability (ICRF193 200 nM)
C[N+]1(C)CCCCC1COC(=O)C(O)(c1ccccc1)c1ccccc1 (configuration not stated) [Bevonium metilsulfate]	> 45.8 µM	> 45.8 µM
COP(=S)(OC)SCN1C(=O)c2ccccc2C1=O [Phosmet]	> 45.8 µM	> 45.8 µM
C=C1CCN([C@H](C)[C@](O)(Cn2cncn2)c2ccc(F)cc2F)CC1 [Efinaconazole]	> 45.8 µM	> 45.8 µM
CNC1CCCN(c2c(F)cc3c(=O)c(C(=O)O)cn(C4CC4)c3c2OC)C1 (configuration not stated) [Balofloxacin]	> 45.8 µM	> 45.8 µM
Cc1c(C(N)=O)cc([N+](=O)[O-])cc1[N+](=O)[O-] [Zoalene]	> 45.8 µM	> 45.8 µM
CN1CCN(C(c2ccccc2)c2ccc(Cl)cc2)CC1 (configuration not stated) [Chlorcyclizine]	> 45.8 µM	> 45.8 µM
CC(=O)Nc1nnc(S(N)(=O)=O)s1 [Acetazolamide]	> 45.8 µM	> 45.8 µM
C[C@H]1C[C@@H]2[C@H]([C@@H](O)C[C@@]3(C)[C@H]2CC[C@]3(O)C(=O)CO)[C@@]2(C)C=CC(=O)C=C12 [Methylprednisolone]	> 45.8 µM	> 45.8 µM
CN(C(=O)C(Cl)Cl)c1ccc(OC(=O)c2ccco2)cc1 [Diloxanide furoate]	> 45.8 µM	> 45.8 µM
COC(=O)N[C@H](C(=O)N[C@@H](Cc1ccccc1)[C@@H](O)CN(Cc1ccc(-c2ccccn2)cc1)NC(=O)[C@@H](NC(=O)OC)C(C)(C)C)C(C)(C)C [Atazanavir]	> 45.8 µM	> 45.8 µM
C=CCN1C[C@H](C(=O)N(CCCN(C)C)C(=O)NCC)C[C@@H]2c3cccc4[nH]cc(c34)C[C@H]21 [Cabergoline]	> 45.8 µM	> 45.8 µM
COc1cc(C)nc(-n2nc(C)cc2OC)n1 [Epirizole]	> 45.8 µM	> 45.8 µM
C[N+]1(C)[C@@H]2C[C@@H](OC(=O)C(O)(c3cccs3)c3cccs3)C[C@H]1[C@@H]1O[C@@H]12 [Tiotropium (Bromide)]	> 45.8 µM	> 45.8 µM
CN1CCN(C2=Nc3ccccc3Cc3ccccc32)CC1 [Perlapine]	> 45.8 µM	> 45.8 µM
O=C(O[C@H]1C[N+]2(CCCOc3ccccc3)CCC1CC2)C(O)(c1cccs1)c1cccs1 [Aclidinium (Bromide)]	> 45.8 µM	> 45.8 µM
Clc1ccc2c(c1)CCc1cccnc1C2=C1CCNCC1 [Desloratadine]	> 45.8 µM	> 45.8 µM
CNC(C)Cc1ccccc1OC (configuration not stated) [Methoxyphenamine]	> 45.8 µM	> 45.8 µM
C=C[C@H]1CN2CC[C@H]1C[C@H]2[C@H](O)c1ccnc2ccccc12 [CINCHONIDINE]	> 45.8 µM	> 45.8 µM
Cc1nnc2n1-c1sc(CCC(=O)N3CCOCC3)cc1C(c1ccccc1Cl)=NC2 [Apafant]	> 45.8 µM	> 45.8 µM
C=C[C@H]1CN2CC[C@H]1C[C@H]2[C@H](OC(=O)OCC)c1ccnc2ccc(OC)cc12 [QUININE ETHYL CARBONATE]	> 45.8 µM	> 45.8 µM
CC(/C=C/C=C(\C)C(=O)O[C@@H]1O[C@H](CO[C@@H]2O[C@H](CO)[C@@H](O)[C@H](O)[C@H]2O)[C@@H](O)[C@H](O)[C@H]1O)=C\C=C\C=C(C)\C=C\C=C(/C)C(=O)O[C@@H]1O[C@H](CO[C@@H]2O[C@H](CO)[C@@H](O)[C@H](O)[C@H]2O)[C@@H](O)[C@H](O)[C@H]1O [Crocin?]	> 45.8 µM	> 45.8 µM
